Measurements published in EP0908457B1, “3-(1,2-benzisothiazol- and isoxazol-5-Y1)-2,4(1H,3H)-pyrimidinedione or thione and 3-(1,2-benzisothiazol- and isoxazol-5-y1)-4(3H)-pyrimidinone or thione herbicidal agents” (BASF AKTIENGESELLSCHAFT, priority 1997, dated 1999).

Experiments:
[1] = system: Echinochloa oryzoides (Ard.) Fritsch.; assay: Preemergence weed control under flooded paddy conditions, ECHORC (Watergrass (Calif.)); assay type: in vivo; details: preemergence, flooded paddy, rated three to four weeks after treatment
Cyperus iria [2] = assay: Preemergence weed control under flooded paddy conditions, CYPIR (Rice Flatsedge); assay type: in vivo; details: preemergence, flooded paddy, rated three to four weeks after treatment
[3] = system: Cyperus serotinus, Rottb.; assay: Preemergence weed control under flooded paddy conditions, CYPSE (Flatsedge); assay type: in vivo; details: preemergence, rated three to four weeks after treatment
[4] = system: Monochoria vaginalis, Presl.; assay: Preemergence weed control under flooded paddy conditions, MOOVA (Monochoria); assay type: in vivo; details: preemergence, flooded paddy, rated three to four weeks after treatment
Sagittaria pygmaea, L. [5] = assay: Preemergence weed control under flooded paddy conditions, SAGPY (Arrowhead (Pygmaea)); assay type: in vivo; details: preemergence, flooded paddy, rated three to four weeks after treatment
[6] = system: Echinochloa oryzoides (Ard.) Fritsch.; assay: Postemergence weed control under flooded paddy conditions, ECHORC (Watergrass (Calif.)); assay type: in vivo; details: rated three to four weeks after treatment
Cyperus iria [7] = assay: Postemergence weed control under flooded paddy conditions, CYPIR (Rice Flatsedge); assay type: in vivo; details: rated three to four weeks after treatment
[8] = system: Cyperus serotinus, Rottb.; assay: Postemergence weed control under flooded paddy conditions, CYPSE (Flatsedge); assay type: in vivo; details: rated three to four weeks after treatment
[9] = system: Monochoria vaginalis, Presl.; assay: Postemergence weed control under flooded paddy conditions, MOOVA (Monochoria); assay type: in vivo; details: rated three to four weeks after treatment
Sagittaria pygmaea, L. [10] = assay: Postemergence weed control under flooded paddy conditions, SAGPY (Arrowhead (Pygmaea)); assay type: in vivo; details: rated three to four weeks after treatment
[11] = system: Oryza sativa, (L.) Tebonnet; assay: Rice tolerance to post-transplant applications under flooded paddy conditions (Example 187), ORYSAT (Rice, Tebonnet); details: rated three to four weeks after treatment; on herbicidal effect rating ORYSAT: meaning of each grade not given here
[12] = system: Oryza sativa, (L.) Tebonnet; assay: Rice tolerance to post-transplant applications under flooded paddy conditions (Example 188), ORYSAT (Rice, Tebonnet); details: rated three to four weeks after treatment

COc1c(-c2nsc3ccc(-n4c(=O)cc(C(F)(F)F)n(C)c4=O)cc23)ccc(C)c1C [Example 267, 2,4(1H,3H)-Pyrimidinedione, 3-[3-(2-methoxy-3,4-xylyl)-1,2-benzisothiazol-5-yl]-1-methyl-6-(trifluoromethyl)-]
0.0: CYPSE herbicidal effect rating ([3]; Rate 0.0320 kg/ha) | CYPSE herbicidal effect rating ([3]; Rate 0.0620 kg/ha) | SAGPY herbicidal effect rating (Sagittaria pygmaea, L. [5]; Rate 0.0320 kg/ha) | herbicidal effect rating, CYPSE ([8]; Rate 0.0320 kg/ha) | herbicidal effect rating, CYPSE ([8]; Rate 0.0620 kg/ha) | herbicidal effect rating, CYPSE ([8]; Rate 0.1250 kg/ha) | herbicidal effect rating, CYPSE ([8]; Rate 0.2500 kg/ha) | herbicidal effect rating, SAGPY (Sagittaria pygmaea, L. [10]; Rate 0.0320 kg/ha) | herbicidal effect rating, SAGPY (Sagittaria pygmaea, L. [10]; Rate 0.0620 kg/ha) | herbicidal effect rating, SAGPY (Sagittaria pygmaea, L. [10]; Rate 0.1250 kg/ha) | herbicidal effect rating, SAGPY (Sagittaria pygmaea, L. [10]; Rate 0.2500 kg/ha)
3.0: SAGPY herbicidal effect rating (Sagittaria pygmaea, L. [5]; Rate 0.1250 kg/ha) | ORYSAT herbicidal effect rating ([11]; Rate 0.0620 kg/ha)
7.5: MOOVA herbicidal effect rating ([4]; Rate 0.0320 kg/ha)
7.0: herbicidal effect rating, ORYSAT (rice tolerance) ([12]; Rate 0.2500 kg/ha)
5.0: SAGPY herbicidal effect rating (Sagittaria pygmaea, L. [5]; Rate 0.2500 kg/ha) | herbicidal effect rating, ORYSAT (rice tolerance) ([12]; Rate 0.0620 kg/ha)
9.0: ECHORC herbicidal effect rating ([1]; Rate 0.0320 kg/ha) | ECHORC herbicidal effect rating ([1]; Rate 0.0620 kg/ha) | ECHORC herbicidal effect rating ([1]; Rate 0.1250 kg/ha) | ECHORC herbicidal effect rating ([1]; Rate 0.2500 kg/ha) | CYPIR herbicidal effect rating (Cyperus iria [2]; Rate 0.1250 kg/ha) | CYPIR herbicidal effect rating (Cyperus iria [2]; Rate 0.2500 kg/ha) | CYPSE herbicidal effect rating ([3]; Rate 0.2500 kg/ha) | MOOVA herbicidal effect rating ([4]; Rate 0.0620 kg/ha) | MOOVA herbicidal effect rating ([4]; Rate 0.1250 kg/ha) | MOOVA herbicidal effect rating ([4]; Rate 0.2500 kg/ha) | herbicidal effect rating, ECHORC ([6]; Rate 0.1250 kg/ha) | herbicidal effect rating, ECHORC ([6]; Rate 0.2500 kg/ha) | herbicidal effect rating, CYPIR (Cyperus iria [7]; Rate 0.0320 kg/ha) | herbicidal effect rating, CYPIR (Cyperus iria [7]; Rate 0.0620 kg/ha) | herbicidal effect rating, CYPIR (Cyperus iria [7]; Rate 0.1250 kg/ha) | herbicidal effect rating, CYPIR (Cyperus iria [7]; Rate 0.2500 kg/ha) | herbicidal effect rating, MOOVA ([9]; Rate 0.0320 kg/ha) | herbicidal effect rating, MOOVA ([9]; Rate 0.0620 kg/ha) | herbicidal effect rating, MOOVA ([9]; Rate 0.1250 kg/ha) | herbicidal effect rating, MOOVA ([9]; Rate 0.2500 kg/ha)
2.0: ORYSAT herbicidal effect rating ([11]; Rate 0.0320 kg/ha) | herbicidal effect rating, ORYSAT (rice tolerance) ([12]; Rate 0.0320 kg/ha)
6.0: ORYSAT herbicidal effect rating ([11]; Rate 0.2500 kg/ha) | herbicidal effect rating, ORYSAT (rice tolerance) ([12]; Rate 0.1250 kg/ha)
4.0: herbicidal effect rating, ECHORC ([6]; Rate 0.0320 kg/ha)
4.5: ORYSAT herbicidal effect rating ([11]; Rate 0.1250 kg/ha)
8.0: CYPIR herbicidal effect rating (Cyperus iria [2]; Rate 0.0320 kg/ha) | CYPIR herbicidal effect rating (Cyperus iria [2]; Rate 0.0620 kg/ha) | herbicidal effect rating, ECHORC ([6]; Rate 0.0620 kg/ha)
1.0: SAGPY herbicidal effect rating (Sagittaria pygmaea, L. [5]; Rate 0.0620 kg/ha)
5.5: CYPSE herbicidal effect rating ([3]; Rate 0.1250 kg/ha)

COCc1nsc2cc(F)c(-n3c(=O)cc(C(F)(F)F)n(C)c3=O)cc12 [Example 378, 2,4(1H,3H)-Pyrimidinedione, 3-[6-fluoro-3-(methoxymethyl)-1,2-benzisothiazol-5-yl]-1-methyl-6-(trifluoromethyl)-]
9.0: herbicidal effect rating, ECHORC ([1]; Rate 0.0320 kg/ha) | herbicidal effect rating, ECHORC ([1]; Rate 0.0620 kg/ha) | herbicidal effect rating, ECHORC ([1]; Rate 0.1250 kg/ha) | herbicidal effect rating, ECHORC ([1]; Rate 0.2500 kg/ha) | herbicidal effect rating, CYPIR (Cyperus iria [2]; Rate 0.0320 kg/ha) | herbicidal effect rating, CYPIR (Cyperus iria [2]; Rate 0.0620 kg/ha) | herbicidal effect rating, CYPIR (Cyperus iria [2]; Rate 0.1250 kg/ha) | herbicidal effect rating, CYPIR (Cyperus iria [2]; Rate 0.2500 kg/ha) | herbicidal effect rating, CYPSE ([3]; Rate 0.0320 kg/ha) | herbicidal effect rating, CYPSE ([3]; Rate 0.0620 kg/ha) | herbicidal effect rating, CYPSE ([3]; Rate 0.1250 kg/ha) | herbicidal effect rating, CYPSE ([3]; Rate 0.2500 kg/ha) | herbicidal effect rating, MOOVA ([4]; Rate 0.0320 kg/ha) | herbicidal effect rating, MOOVA ([4]; Rate 0.0620 kg/ha) | herbicidal effect rating, MOOVA ([4]; Rate 0.1250 kg/ha) | herbicidal effect rating, MOOVA ([4]; Rate 0.2500 kg/ha) | herbicidal effect rating, SAGPY (Sagittaria pygmaea, L. [5]; Rate 0.0320 kg/ha) | herbicidal effect rating, SAGPY (Sagittaria pygmaea, L. [5]; Rate 0.0620 kg/ha) | herbicidal effect rating, SAGPY (Sagittaria pygmaea, L. [5]; Rate 0.1250 kg/ha) | herbicidal effect rating, SAGPY (Sagittaria pygmaea, L. [5]; Rate 0.2500 kg/ha) | herbicidal effect rating, ECHORC ([6]; Rate 0.0320 kg/ha) | herbicidal effect rating, ECHORC ([6]; Rate 0.0620 kg/ha) | herbicidal effect rating, ECHORC ([6]; Rate 0.1250 kg/ha) | herbicidal effect rating, CYPIR (Cyperus iria [7]; Rate 0.0320 kg/ha) | herbicidal effect rating, CYPIR (Cyperus iria [7]; Rate 0.0620 kg/ha) | herbicidal effect rating, CYPIR (Cyperus iria [7]; Rate 0.1250 kg/ha) | herbicidal effect rating, CYPSE ([8]; Rate 0.0320 kg/ha) | herbicidal effect rating, CYPSE ([8]; Rate 0.0620 kg/ha) | herbicidal effect rating, CYPSE ([8]; Rate 0.1250 kg/ha) | herbicidal effect rating, MOOVA ([9]; Rate 0.0320 kg/ha) | herbicidal effect rating, MOOVA ([9]; Rate 0.0620 kg/ha) | herbicidal effect rating, MOOVA ([9]; Rate 0.1250 kg/ha) | herbicidal effect rating, SAGPY (Sagittaria pygmaea, L. [10]; Rate 0.0320 kg/ha) | herbicidal effect rating, SAGPY (Sagittaria pygmaea, L. [10]; Rate 0.0620 kg/ha) | herbicidal effect rating, SAGPY (Sagittaria pygmaea, L. [10]; Rate 0.1250 kg/ha) | herbicidal effect rating ORYSAT ([11]; Rate 0.0320 kg/ha) | herbicidal effect rating ORYSAT ([11]; Rate 0.0620 kg/ha) | herbicidal effect rating ORYSAT ([11]; Rate 0.1250 kg/ha) | herbicidal effect rating ORYSAT ([11]; Rate 0.2500 kg/ha) | herbicidal effect rating, ORYSAT (rice tolerance) ([12]; Rate 0.1250 kg/ha)
8.0: herbicidal effect rating, ORYSAT (rice tolerance) ([12]; Rate 0.0320 kg/ha) | herbicidal effect rating, ORYSAT (rice tolerance) ([12]; Rate 0.0620 kg/ha)
